Reference: publication PMC6766655, “AhR–ROR-γt complex is a therapeutic target for MAP4K3/GLK^highIL-17A^high subpopulation of systemic lupus erythematosus” (The FASEB Journal, 2019)

Experiments:
AhR–ROR-γt complex = experiment: In situ proximity ligation assay in peripheral blood T cells from patients with SLE or RA; type: cell-based, human; conditions: 5 μM for 30 min; T cells from patients with SLE and RA
Experimental: (§1) Proximity ligation assays (PLAs) were performed using the Duolink In Situ Red Starter Kit (MilliporeSigma) according to the manufacturer’s instructions ([24]). Briefly, cells were incubated with rabbit or mouse primary antibodies for the AhR–plus–ROR-γt pair, followed by species-specific secondary antibodies that are conjugated with oligonucleotides (PLA probes). After ligation and amplification reactions for 100 min, the PLA signals from each pair of PLA probes in close proximity (<40 nm) were visualized as individual red dots by a confocal microscope (TCS SP5II; Leica Microsystems, Buffalo Grove, IL, USA). Red dots represent direct interaction signals.
(§2) After verification of the induction of GLK–AhR–ROR-γt–IL-17A signaling in human SLE T cells, we next studied whether the GLK–AhR–ROR-γt signaling is a therapeutic target for autoimmune diseases. Because there are no known commercial GLK inhibitors, we performed high-throughput screening of 101,200 compounds to identify GLK inhibitors using both cell-based luciferase reporter assays and in vitro kinase assays. […] Nevertheless, the IC50 of verteporfin for MAP4K3-GLK was the lowest one. […]
(§3) Figure 3 Verteporfin (C1) blocks the AhR–ROR-γt complex in human autoimmune T cells. […] D) Quantification of the PLA signals shown in panel C. *P < 0.05, ***P < 0.001 (2-tailed Student’s t test).

[1] = tested on: AhR–phosphorylated ROR-γt (Ser-489) complex; experiment: as above; type: cell-based, human; conditions: 5 μM for 30 min; T cells from patients with SLE and RA
Experimental: as §1, §2, §3

murine primary T cells = experiment: ELISA of cytokines in supernatants of anti-CD3/CD28-stimulated murine primary T cells; type: cell-based; conditions: anti-CD3 plus anti-CD28
Text: Primary human T cells were freshly isolated and negatively selected from the PBLs of clinical samples using a cocktail of biotin-conjugated anti-CD19, anti-CD14, and anti-CD11b antibodies (BioLegend) on a magnetic cell separation column (Miltenyi Biotec, Bergisch Gladbach, Germany) ([26]). In addition, primary murine T cells were negatively selected from the spleens of mice using magnetically coupled antibodies against CD11b, B220, CD49b, CD235, and TER-119 (Miltenyi Biotec) ([18]).
We further studied whether IL-17A production is abolished by verteporfin in human and murine T cells. We first tested the inhibitory effect of verteporfin in murine T cells stimulated with T-cell receptor (TCR) signaling (anti-CD3 plus anti-CD28 antibodies). […] This reduction is likely due to the inhibition of NF-κB activation ([18]) by the verteporfin treatment. This notion is supported by our published results that TCR-induced TNF-α and IFN-γ levels in T cells are inhibited by IKK-β conditional knockout ([18]). Next, we studied whether verteporfin attenuates IL-17A production using human peripheral blood T cells with stimulation. The levels of T-cell–secreted IL-17A in unstimulated T cells from patients with SLE and RA were enhanced compared with those from healthy controls (Fig. 5B). […] GLK overexpression in T cells selectively induces IL-17A production in Lck-GLK Tg mice ([18]). […] The inhibition of the production of other cytokines by the high-dose but not low-dose verteporfin treatment may be due to a requirement of higher concentration of verteporfin for an efficient inhibition of NF-κB activation.
Figure 5 Verteporfin (C1) blocks IL-17 production of human T cells. A) ELISA of various cytokines in supernatants of murine primary T cells stimulated with anti-CD3 or CD28 and cotreated with C1 (5 or 10 μM) for 3 d. Means ± SD are shown; n = 3/group. B) ELISA of various cytokines in supernatants of human T cells. T cells were stimulated with anti-CD3 or CD28 and cotreated with C1 (1 or 5 μM) for 3 d. HC, healthy control; N.S., not significant. Means ± SD are shown. *P < 0.05, **P < 0.01, ***P < 0.001 (2-tailed Student’s t test).

HPK1 (MAP4K1) = molecular target: T1, HPK1 (MAP4K1) (Homo sapiens, UniProt Q92918); experiment: In vitro kinase assay, myelin basic protein as substrate (ADP-Glo); type: biochemical; conditions: recombinant kinase domain
T1 construct: Recombinant proteins of kinase domains of various MAP4Ks were used; purchased Promega
T1 sequence (Q92918 17-274 limits assumed): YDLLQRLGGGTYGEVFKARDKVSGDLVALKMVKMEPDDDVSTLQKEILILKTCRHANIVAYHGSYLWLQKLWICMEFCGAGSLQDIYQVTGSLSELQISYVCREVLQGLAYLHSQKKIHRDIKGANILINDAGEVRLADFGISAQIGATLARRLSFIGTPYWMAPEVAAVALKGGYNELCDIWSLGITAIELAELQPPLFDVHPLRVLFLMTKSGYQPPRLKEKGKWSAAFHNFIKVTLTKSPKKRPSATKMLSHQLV

EAE mice = experiment: MOG-induced EAE in wild-type C57BL/6J mice; type: in vivo; conditions: 0.4 μg/g body weight i.v. every 3 d

With verteporfin the “AhR–ROR-γt complex (PLA signals)” value (AhR–ROR-γt complex) was “significantly inhibited”, the “AhR–phosphorylated ROR-γt complex (PLA signals)” value [1] was “significantly inhibited” and the “TCR-induced IL-17A production” value (murine primary T cells; 5 or 10 μM for 3 d) was “drastically abolished”. The “TCR-induced IL-17B, IL-17E, and IL-17F levels” value (murine primary T cells; 5 or 10 μM for 3 d) was “not significantly decreased”, the “TCR-induced TNF-α levels” value (murine primary T cells; 5 or 10 μM for 3 d) was “slightly but not significantly reduced” and the “TCR-induced IFN-γ levels” value (murine primary T cells; high-dose 10 μM for 3 d) was “significantly inhibited”. The IC50 (HPK1 (MAP4K1)) was 7.91 nM, the “disease severity (clinical score), EAE” value (EAE mice) was “significantly suppressed” and the “serum levels of IL-6, TNF-α, IFN-γ, and IL-4, EAE” value (EAE mice) was “not significantly decreased”. The “serum IL-17A levels, EAE” value (EAE mice; day 16) was “significantly suppressed”.
